Experimental data: patent US11518785B2, “Peptide showing melanogenesis promoting activity and use thereof” (CAREGEN CO., LTD., priority 2017, dated 2022)
“And” between values parts separate entries of the source, which are not always exact repeats. Equal entries are not always repeated.

How the values were obtained:
Type in all cases: cell-based, mouse
[1] = test system: melanocytes (B16F10 cell line); test: Melanogenesis assay (melanin content); details: for Melanin content (%): B16F10, 72 hours, control group = 100; for melanogenesis: mouse melanin cell line B16F10 treated with the peptide, result in words
Procedure: After seeding melanocytes (B16F10 cell line) in 6-well plates at the density of 5×10^4 cells/well, the melanocytes were cultured in an incubator at a temperature of 37° C. for 24 hours, and the medium of each plate was removed and replaced with 2% serum-containing media, followed by treatment with the present peptide at different concentrations and then incubation of 72 hours.
Then, the culture medium was removed, and the cells were taken off and then transferred into 1.5-ml tubes, followed by centrifugation at 13,000 rpm for 3 minutes to remove the supernatant. Next, cell pellets were collected to observe melanin. 150 μl of 1 N NaOH was added to the cell pellets to lyse intracellular melanin at a temperature of 60° C. for 30 minutes.

[2] = test system: tyrosinase in melanoma cell line (B16F10) cells; test: Tyrosinase activity assay in lysates of treated cells (L-DOPA); details: for Tyrosinase activity (%): B16F10, 72 hours, control group = 100; for tyrosinase activity: mouse melanin cell line B16F10 treated with the peptide, result in words
Procedure: Melanoma cell line (B16F10) cells were cultured in 6-well culture plates for 24 hours, and treated with the peptide with different concentrations, followed by culture for 72 hours. The 6-well culture plates were loaded on ice and washed with cool PBS, and then 300 μl of 0.1 M sodium phosphate buffer (pH 6.8, lysis buffer) containing 1% Triton X-100 was added. The cells were collected in 1.5-ml tubes, and then cell membranes were disrupted by repeating five times rapid-freezing at […] and thawing. After centrifugation at 15,000 rpm for 10 minutes, the supernatant was collected in other 1.5-mL tubes, and the protein of the samples was quantified. The samples were diluted to have the same protein concentration and then dispensed in every three wells in 96-well culture plates, and then 20 μl of 10 mM L-DOPA was added, followed by incubation at 37° C. for 1 hour The blank and positive control were as shown in Table 5.
Then, the absorbance was measured at 475 nm, and the results are shown in FIGS. 2, 7, and 12, and Tables 6 to 8.

[3] = test system: MITF mRNA in B16F10 cell line; test: RT-PCR of melanogenesis-related genes: MITF; details: B16F10 treated with the peptide, 72 hours, result in words
Procedure: (§1) Melanocytes (B16F10 cell line) were seeded on 6-well culture plates at the density of 5×10^4 cells/well and incubated in an incubator for 24 hours. Then, the medium was replaced with […], and the cells were treated with the peptides of the present invention with different concentrations and cultured for 72 hours. Next, after RNA extraction of cells and quantification, cDNA was synthesized by using the cDNA synthesis kit (Intron, Korea). […] Then, degrees of mRNA expression of the growth factors under each sample treatment conditions were compared by running the resultants on a 5% agarose gel, and the results are shown in FIGS. 3, 8, and 13.

[4] = test system: tyrosinase mRNA in B16F10 cell line; test: RT-PCR of melanogenesis-related genes: tyrosinase; details: B16F10 treated with the peptide, 72 hours, result in words
Procedure: as §1

[5] = test system: TRP1 mRNA in B16F10 cell line; test: RT-PCR of melanogenesis-related genes: TRP1; details: B16F10 treated with the peptide, 72 hours, result in words
Procedure: as §1

[6] = test system: MITF and tyrosinase protein in B16F10 cell line; test: Western blotting of melanogenesis-related proteins; details: B16F10 treated with the peptide, 72-hour incubation, result in words
Procedure: (§2) Melanocytes (B16F10 cell line) were seeded on 6-well culture plates at the density of 5×10^4 cells/well and incubated in an incubator for 24 hours, and the cells were treated with the peptides of the present invention with different concentrations. After 72-hour incubation, the cells were lysed, and the cells were subjected to western blotting using antibodies (antacruz biotechnology, USA) each specific to MITF and tyrosinase, which are the factors involved in melanogenesis.

[7] = test system: CREB phosphorylation in B16F10 cell line; test: Melanogenesis-related protein activity assay (CREB phosphorylation, western blotting); details: B16F10 treated with the peptide, 48-hour incubation, result in words
Procedure: as §2, with “48-hour” for “72-hour”, “using specific” for “using”, “(Cell Signaling Technology,” for “(antacruz biotechnology,”, “USA)” for “USA) each specific”, “investigate the phosphorylation level of CREB,” for “MITF and tyrosinase,”, “is a signaling substance” for “are the factors”

Substance	Melanin content (%) ([1]; 10 μM peptide)	Melanin content (%) ([1]; 50 μM peptide)	melanogenesis [1]	Tyrosinase activity (%) ([2]; 10 μM peptide)	Tyrosinase activity (%) ([2]; 50 μM peptide)	tyrosinase activity [2]	mRNA expression of MITF [3]	mRNA expression of tyrosinase [4]	mRNA expression of TRP1 [5]	protein expression involved in the process of melanogenesis (MITF, tyrosinase) [6]	phosphorylation level of CREB [7]	Tyrosinase activity (%) ([2]; 200 nM a-MSH)
FCLGPCPYIWSL [SEQ ID NO: 1]	125%	264%	increased	157%	201%	increased	increased	increased	increased	increased	increased	
KVTAMRCFLL [SEQ ID NO: 2]	109%	155%	increased	144%	189%	increased	increased	increased	increased	increased	increased	
RVTAMRCFLL [SEQ ID NO: 3]	106%	164%	increased	114%	173%	increased	increased	increased	increased	increased	increased	
α-melanocyte stimulating hormone [a-MSH, reference compound]												467% and 484%
